# Data from patent US4877795A, “4H-quinolizin-4-one compounds useful for the treatment of allergic bronchial asthma, allergic rhinitis atropic dermatitis and the like” (Kissei Pharmaceutical Co., Ltd., priority 1987, dated 1989).
# Key:
# IgE = assay: Determination of Igs produced in in vitro culture: inhibition of IgE secreted by spleen cells (adoptive secondary immune response to DNP-As), ELISA; format: cell-based, BALB/c mice; settings: 4 days culture; for inhibition at 1 µg/mL / Inhibition % of IgE: 1.0 μg/ml; for inhibition at 2.5 µg/mL: 2.5 μg/ml; for inhibition at 0.25 µg/mL: 0.25 μg/ml; for inhibition at 5 µg/mL: 5.0 μg/ml; for inhibition at 40 µg/mL: 40.0 μg/ml
# Protocol: (§1) Determination of Igs produced in in vitro culture
# (§2) BALB/c mice were immunized intraperitoneally with 5 μg of DNP-As adsorbed in 4 mg aluminum hydroxide gel. 4 weeks after the immunization, the spleens were excised from the mice and 5×10^7 spleen cells were transferred intravenously into the recipient mice which had been exposed to 600 rad of X-ray irradiation. Immediately after cell transfer, the recipients were then immunized intraperitoneally with 5 μg of DNP-As adsorbed in 4 mg aluminum hydroxide gel to induce adoptive secondary immune response. Further 4 weeks after the immunization of recipients, the spleens were excised from them and the spleen cell suspensions 5×10^6 cells/ml were cultured with or without a compound to be tested in 96-well micro plates at 37° C. for 4 days. IgE and IgG secreted into the culture supernatant was each determined correspondingly by ELISA and the inhibitory effect was calculated according to the following equation. [formula]
# IgG = assay: Determination of Igs produced in in vitro culture: inhibition of IgG secreted by spleen cells (adoptive secondary immune response to DNP-As), ELISA; format: cell-based, BALB/c mice; settings: 4 days culture; for Inhibition % of IgG / inhibition at 1 µg/mL: 1.0 μg/ml; for inhibition at 2.5 µg/mL: 2.5 μg/ml; for inhibition at 0.25 µg/mL: 0.25 μg/ml; for inhibition at 5 µg/mL: 5.0 μg/ml; for inhibition at 40 µg/mL: 40.0 μg/ml
# Protocol: as §1, §2
smiles,measurement,setting,value
"CSc1c(C#N)c(=O)n2cccc(C)c2c1C(=O)N1CCC(c2ccccc2)CC1 (single isomer, unassigned) [S-81A, 3-Cyano-9-methyl-2methylthio-1-(4-phenylpiperidinocarbonyl)-4H-quinolizin-4-one]",inhibition at 1 µg/mL,"IgE; Mus musculus, 96 h",46%
same,Inhibition % of IgG,IgG,17%
"CSc1c(C#N)c(=O)n2cccc(C)c2c1C(=O)N1CCC(c2ccccc2)CC1 (single isomer, unassigned) [S-81B, 3-Cyano-9-methyl-2methylthio-1-(4-phenylpiperidinocarbonyl)-4H-quinolizin-4-one]",Inhibition % of IgE,IgE,50%
same,Inhibition % of IgG,IgG,4%
"CSc1c(C#N)c(=O)n2ccccc2c1C(=O)N1CCC(Cc2ccccc2)CC1 (single isomer, unassigned) [S-82A, 1-(4-Benzylpiperidinocarbonyl)-3-cyano-2-methylthio-4H-quinolizin-4-one]",inhibition at 1 µg/mL,"IgE; Mus musculus, 96 h",43%
same,inhibition at 1 µg/mL,"IgG; Mus musculus, 96 h",18%
"CSc1c(C#N)c(=O)n2ccccc2c1C(=O)N1CCC(Cc2ccccc2)CC1 (single isomer, unassigned) [S-82B, 1-(4-Benzylpiperidinocarbonyl)-3-cyano-2-methylthio-4H-quinolizin-4-one]",inhibition at 2.5 µg/mL,"IgE; Mus musculus, 96 h",63%
same,inhibition at 2.5 µg/mL,"IgG; Mus musculus, 96 h",8%
"N#Cc1c(SCc2ccccc2)c(C(=O)N2CCC(c3ccccc3)CC2)c2ccccn2c1=O (single isomer, unassigned) [S-83A, 2-Benzylthio-3-cyano-1-(4-phenylpiperidinocarbonyl)-4H-quinolizin-4-one]",inhibition at 1 µg/mL,"IgE; Mus musculus, 96 h",67%
same,inhibition at 1 µg/mL,"IgG; Mus musculus, 96 h",23%
"N#Cc1c(SCc2ccccc2)c(C(=O)N2CCC(c3ccccc3)CC2)c2ccccn2c1=O (single isomer, unassigned) [S-83B, 2-Benzylthio-3-cyano-1-(4-phenylpiperidinocarbonyl)-4H-quinolizin-4-one]",inhibition at 0.25 µg/mL,"IgE; Mus musculus, 96 h",41%
same,inhibition at 0.25 µg/mL,"IgG; Mus musculus, 96 h",10%
"N#Cc1c(SCc2ccccc2)c(C(=O)N2CCC(Cc3ccccc3)CC2)c2ccccn2c1=O (single isomer, unassigned) [S-84A, 1-(4-Benzylpiperidinocarbonyl)-2-benzylthio-3-cyano-4H-quinolizin-4-one]",inhibition at 1 µg/mL,"IgE; Mus musculus, 96 h",58%
same,inhibition at 1 µg/mL,"IgG; Mus musculus, 96 h",22%
"N#Cc1c(SCc2ccccc2)c(C(=O)N2CCC(Cc3ccccc3)CC2)c2ccccn2c1=O (single isomer, unassigned) [S-84B, 1-(4-Benzylpiperidinocarbonyl)-2-benzylthio-3-cyano-4H-quinolizin-4-one]",Inhibition % of IgE,IgE,58%
same,Inhibition % of IgG,IgG,32%
"CSc1c(C#N)c(=O)n2ccccc2c1C(=O)N1CCC2CCCCC21 (single isomer, unassigned) [S-85A, 3-Cyano-2-methylthio-1-(perhydroindol-1-yl-carbonyl)-4H-quinolizin-4-one]",inhibition at 5 µg/mL,"IgE; Mus musculus, 96 h",43%
same,inhibition at 5 µg/mL,"IgG; Mus musculus, 96 h",23%
"CSc1c(C#N)c(=O)n2ccccc2c1C(=O)N1CCC2CCCCC21 (single isomer, unassigned) [S-85B, 3-Cyano-2-methylthio-1-(perhydroindol-1-yl-carbonyl)-4H-quinolizin-4-one]",inhibition at 2.5 µg/mL,"IgE; Mus musculus, 96 h",39%
same,inhibition at 2.5 µg/mL,"IgG; Mus musculus, 96 h",19%
"CSc1c(C#N)c(=O)n2ccccc2c1C(=O)OCC1CCCCC1 [S-1, Cyclohexylmethyl 3-cyano-2-methylthio-4H-quinolizin-4-one-1-carboxylate]",inhibition at 5 µg/mL,"IgE; Mus musculus, 96 h",65%
same,inhibition at 5 µg/mL,"IgG; Mus musculus, 96 h",22%
"CSc1c(C#N)c(=O)n2ccccc2c1C(=O)OCC1CC1 [S-2, Cyclopropylmethyl 3-cyano-2-methylthio-4H-quinolizin-4-one-1-carboxylate]",inhibition at 5 µg/mL,"IgE; Mus musculus, 96 h",51%
same,inhibition at 5 µg/mL,"IgG; Mus musculus, 96 h",27%
"CSc1c(C#N)c(=O)n2ccccc2c1C(=O)OCCCC1CCCCC1 [S-3, 3'-Cyclohexylpropyl 3-cyano-2-methylthio-4H-quinolizin-4-one-1-carboxylate]",inhibition at 1 µg/mL,"IgE; Mus musculus, 96 h",79%
same,inhibition at 1 µg/mL,"IgG; Mus musculus, 96 h",35%
"CSc1c(C#N)c(=O)n2ccccc2c1C(=O)OCC(Cl)(Cl)Cl [S-4, 2',2',2'-Trichloroethyl 3-cyano-2-methylthio-4H-quinolizin-4-one-1-carboxylate]",inhibition at 1 µg/mL,"IgE; Mus musculus, 96 h",68%
same,inhibition at 1 µg/mL,"IgG; Mus musculus, 96 h",39%
"C=CCOC(=O)c1c(SC)c(C#N)c(=O)n2ccccc12 [S-5, 2'-Propenyl 3-cyano-2-methylthio-4H-quinolizin-4-one-1-carboxylate]",inhibition at 20 µg/mL,"IgE; Mus musculus, 96 h, 20.0 μg/ml",77%
same,inhibition at 20 µg/mL,"IgG; Mus musculus, 96 h, 20.0 μg/ml",47%
"C#CCOC(=O)c1c(SC)c(C#N)c(=O)n2ccccc12 [S-6, 2'-Propynl 3-cyano-2-methylthio-4H-quinolizin-4-one-1-carboxylate]",inhibition at 10 µg/mL,"IgE; Mus musculus, 96 h, 10.0 μg/ml",63%
same,inhibition at 10 µg/mL,"IgG; Mus musculus, 96 h, 10.0 μg/ml",35%
"CCCOC(=O)c1c(SC)c(C#N)c(=O)n2ccccc12 [S-7, Propyl 3-cyano-2-methylthio-4H-quinolizin-4-one-1-carboxylate]",inhibition at 40 µg/mL,"IgE; Mus musculus, 96 h",52%
same,inhibition at 40 µg/mL,"IgG; Mus musculus, 96 h",24%
"CSc1c(C#N)c(=O)n2ccccc2c1C(=O)OC(C)C [S-8, Isopropyl 3-cyano-2-methylthio-4H-quinolizin-4-one-1-carboxylate]",inhibition at 2.5 µg/mL,"IgE; Mus musculus, 96 h",36%
same,inhibition at 2.5 µg/mL,"IgG; Mus musculus, 96 h",18%
"CCCCOC(=O)c1c(SC)c(C#N)c(=O)n2ccccc12 [S-9, Butyl 3-cyano-2-methylthio-4H-quinolizin-4-one-1-carboxylate]",inhibition at 2.5 µg/mL,"IgE; Mus musculus, 96 h",54%
same,inhibition at 2.5 µg/mL,"IgG; Mus musculus, 96 h",17%
"CCC(C)OC(=O)c1c(SC)c(C#N)c(=O)n2ccccc12 (stereo not shown) [S-10, 1'-Methylpropyl 3-cyano-2-methylthio-4H-quinolizin-4-one-1-carboxylate]",inhibition at 2.5 µg/mL,"IgE; Mus musculus, 96 h",48%
same,inhibition at 2.5 µg/mL,"IgG; Mus musculus, 96 h",27%
"CSc1c(C#N)c(=O)n2ccccc2c1C(=O)OCCC(C)C [S-11, Isopentyl 3-cyano-2-methylthio-4H-quinolizin-4-one-1-carboxylate]",inhibition at 5 µg/mL,"IgE; Mus musculus, 96 h",66%
same,inhibition at 5 µg/mL,"IgG; Mus musculus, 96 h",30%
"CSc1c(C#N)c(=O)n2ccccc2c1C(=O)OC1CCCC1 [S-12, Cyclopentyl 3-cyano-2-methylthio-4H-quinolizin-4-one-1-carboxylate]",inhibition at 5 µg/mL,"IgE; Mus musculus, 96 h",65%
same,inhibition at 5 µg/mL,"IgG; Mus musculus, 96 h",32%
"CSc1c(C#N)c(=O)n2ccccc2c1C(=O)OC1CCC1 [S-13, Cyclobutyl 3-cyano-2-methylthio-4H-quinolizin-4-one-1-carboxylate]",inhibition at 5 µg/mL,"IgE; Mus musculus, 96 h",67%
same,inhibition at 5 µg/mL,"IgG; Mus musculus, 96 h",9%
"CSc1c(C#N)c(=O)n2ccccc2c1C(=O)OC1CCCCC1 [S-14, Cyclohexyl 3-cyano-2-methylthio-4H-quinolizin-4-one-1-carboxylate]",inhibition at 1 µg/mL,"IgE; Mus musculus, 96 h",69%
same,inhibition at 1 µg/mL,"IgG; Mus musculus, 96 h",39%
"CSc1c(C#N)c(=O)n2ccccc2c1C(=O)OC1C=CCCC1 (stereo not shown) [S-15, 2'-Cyclohexenyl 3-cyano-2-methylthio-4H-quinolizin-4-one-1-carboxylate]",inhibition at 40 µg/mL,"IgE; Mus musculus, 96 h",62%
same,inhibition at 40 µg/mL,"IgG; Mus musculus, 96 h",21%
"CSc1c(C#N)c(=O)n2ccccc2c1C(=O)O[C@H]1CC[C@H](O)CC1 [S-16, trans-4'-Hydroxycyclohexyl 3-cyano-2-methylthio-4H-quinolizin-4-one-1-carboxylate]",inhibition at 5 µg/mL,"IgE; Mus musculus, 96 h",52%
same,inhibition at 5 µg/mL,"IgG; Mus musculus, 96 h",14%
"CSc1c(C#N)c(=O)n2ccccc2c1C(=O)OC1CCCCC1C (stereo not shown) [S-17, 2'-Methylcyclohexyl 3-cyano-2-methylthio-4H-quinolizin-4-one-1-carboxylate]",inhibition at 0.25 µg/mL,"IgE; Mus musculus, 96 h",43%
same,inhibition at 0.25 µg/mL,"IgG; Mus musculus, 96 h",7%
"CSc1c(C#N)c(=O)n2ccc(C)cc2c1C(=O)OC1CCCCC1 [S-18, Cyclohexyl 3-cyano-8-methyl-2-methylthio-4H-quinolizin-4-one-1-carboxylate]",inhibition at 2.5 µg/mL,"IgE; Mus musculus, 96 h",54%
same,inhibition at 2.5 µg/mL,"IgG; Mus musculus, 96 h",34%
"CSc1c(C#N)c(=O)n2ccccc2c1C(=O)OC1CCCCCC1 [S-19, Cycloheptyl 3-cyano-2-methylthio-4H-quinolizin-4-one-1-carboxylate]",inhibition at 5 µg/mL,"IgE; Mus musculus, 96 h",71%
same,inhibition at 5 µg/mL,"IgG; Mus musculus, 96 h",27%
"CSc1c(C#N)c(=O)n2ccccc2c1C(=O)OC1CCCCCCC1 [S-20, Cyclooctyl 3-cyano-2-methylthio-4H-quinolizin-4-one-1-carboxylate]",inhibition at 5 µg/mL,"IgE; Mus musculus, 96 h",84%
same,inhibition at 5 µg/mL,"IgG; Mus musculus, 96 h",52%
"CSc1c(C#N)c(=O)n2ccccc2c1C(=O)OC1C2CC3CC(C2)CC1C3 (stereo not shown) [S-21, 2'-Adamantyl 3-cyano-2-methylthio-4H-quinolizin-4-one-1-carboxylate]",inhibition at 5 µg/mL,"IgE; Mus musculus, 96 h",70%
same,inhibition at 5 µg/mL,"IgG; Mus musculus, 96 h",47%
"CSc1c(C#N)c(=O)n2ccccc2c1C(=O)OC1CCCc2ccccc21 (stereo not shown) [S-22, 1',2',3',4'-Tetrahydro-1'-naphthyl 3-cyano-2-methylthio-4H-quinolizin-4-one-1-carboxylate]",inhibition at 40 µg/mL,"IgE; Mus musculus, 96 h",82%
same,inhibition at 40 µg/mL,"IgG; Mus musculus, 96 h",42%
"CSc1c(C#N)c(=O)n2ccccc2c1C(=O)OCc1ccc(Br)cc1 [S-23, 4'-Bromobenzyl 3-cyano-2-methylthio-4H-quinolizin-4-one-1-carboxylate]",inhibition at 1 µg/mL,"IgE; Mus musculus, 96 h",79%
same,inhibition at 1 µg/mL,"IgG; Mus musculus, 96 h",34%
"CSc1c(C#N)c(=O)n2ccccc2c1C(=O)OC(C)c1ccccc1 (stereo not shown) [S-24, 1'-Phenylethyl 3-cyano-2-methylthio-4H-quinolizin-4-one-1-carboxylate]",inhibition at 40 µg/mL,"IgE; Mus musculus, 96 h",77%
same,inhibition at 40 µg/mL,"IgG; Mus musculus, 96 h",54%
"CSc1c(C#N)c(=O)n2ccccc2c1C(=O)OCc1ccc(C)c(C)c1 [S-25, 3',4'-Dimethylbenzyl 3-cyano-2-methylthio-4H-quinolizin-4-one-1-carboxylate]",inhibition at 5 µg/mL,"IgE; Mus musculus, 96 h",75%
same,inhibition at 5 µg/mL,"IgG; Mus musculus, 96 h",54%
